From PMC5083757, “Effect of veliparib (ABT-888) on cardiac repolarization in patients with advanced solid tumors: a randomized, placebo-controlled crossover study” (Cancer Chemotherapy and Pharmacology, 2016)
Read-outs that look alike come from different tables or passages of the source. Marks after values point to notes of the source that are not given here.

Experiments:
[1] = tested on: patients with advanced solid tumors; assay: ECG assessment of QTcF interval, single-dose placebo-controlled crossover study; format: in vivo, human
From the text: This was a multicenter phase 1, single-dose, double-blind, placebo-controlled, randomized, 3-period, 6-sequence crossover study (NCT02009631). The primary objective was to evaluate the effect of veliparib on corrected QT interval using Fridericia’s formula (QTcF) in patients with solid tumors. Secondary objectives were to assess the pharmacokinetics, safety, and tolerability of single-dose veliparib.
(§1) Following screening, on the morning of day 1 of each period, eligible patients received a single dose of veliparib 200 mg, veliparib 400 mg, or placebo according to the treatment sequence assigned at randomization, administered orally between 8.00 and 10.00 AM, and approximately 30 min after the start of a low-fat breakfast. Each treatment period lasted 3–7 days, allowing for ≥3 days of drug washout between periods. After study completion, patients were permitted to enter an extension study (NCT02033551) to assess the safety of veliparib as monotherapy or in combination with chemotherapy.
Serial, resting 12-lead ECG measurements were performed at screening, on day 1 of each period at 0 h (pre-dose), and at 0.5, 1, 2, 3, 10, and 24 h post-dose, and at the final study visit on day 3 of period 3. ECGs were performed in triplicate except for a single ECG at screening. All ECG tracings were evaluated using the automated signal analysis algorithm of eECG/ABBIOS to measure predefined ECG intervals (RR, PR, QT, and QRS duration). All ECGs were manually verified and adjudicated by an expert over-reader who was blinded to treatment, time, and patient identification. T- and U-wave morphologies were independently reviewed by a qualified cardiologist who was similarly blinded to treatment, time, and patient identification. QTcF was determined as follows: QTCF=QT/RR3
A linear mixed effects model was used for the analysis of baseline-adjusted QTcF intervals (∆QTcF) for the first 24 h after dosing with either placebo, veliparib 200 mg, or veliparib 400 mg. The primary endpoint was the baseline-adjusted difference in mean QTcF between the veliparib 400 mg dose and placebo (∆∆QTcF) at six post-dose time points. Absence of QTcF effect was established if the 95 % upper confidence bound for the mean ∆∆QTcF between veliparib 400 mg and placebo was below the 10 ms threshold of clinical significance for all post-dose time points, in accordance with ICH E14 guidelines. For the QT/QTc, PR, and QRS interval variables, appropriate cutoff points defining the categories of the largest change from baseline were determined. For QTc, the cutoff points for these categories were as specified in the ICH E14 guidelines. The dataset for ECG evaluations included all available patients’ data.

[2] = tested on: patients with BRCA1/2-mutated or wild-type tumors; set-up: method as in earlier work; settings: cited from earlier work
[3] = Pharmacokinetic assessment of veliparib plasma concentrations after a single oral dose; format: in vivo, human; settings: for half-life / AUC(0-inf) / Vd/F / AUC(0-t) / Cmax / Tmax: human, plasma; for Vd/F: read-out: VZ/F
Protocol: as §1
In each period, blood samples were collected for pharmacokinetic analysis at 0 h (pre-dose), and at 0.5, 1, 2, 3, 10, and 24 h post-dose. Plasma concentrations of veliparib were determined using a validated online solid-phase extraction followed by liquid chromatography with tandem mass spectrometric detection with a lower limit of quantitation for veliparib of 1.05 ng/mL. Veliparib pharmacokinetic parameters were estimated using non-compartmental methods.

[4] = tested on: patients with advanced solid tumors; assay: Exposure-response model (veliparib plasma concentration vs ∆∆QTcF); format: in vivo, human; settings: linear mixed effects model
Protocol: To establish the nonsignificance of a hysteresis effect, the criteria discussed in Darpo et al. were applied. Subsequently, linear mixed effects models were tested, with or without an additional lagged effect compartment, depending on the outcome of the test for hysteresis. A final model was chosen based on goodness of fit, plausibility of the parameters, and Bayesian information criterion (BIC). The relationship between ∆∆QTcF and veliparib concentration was modeled using the following equation: ΔΔQTcFi,j=ηi(2)+(Slope0+ηi(1))×Concentrationi,j+εi,j for subject i and time point j. η ^(2) represents the inter-subject variability on intercept (fixed effect on intercept is set to zero). Slope0 represents fixed effect on slope. η ^(1) represents the inter-subject variability of the Slope. ε i,j is the residual variability in subject i at time j.

dogs = settings: preclinical studies in dogs; cited from earlier work
[5] = tested on: patients with advanced solid tumors; assay: Safety: treatment-emergent adverse events; format: in vivo, human; settings: for TEAE: AE leading to discontinuation / TEAE: Abdominal pain / TEAE: Any AE / TEAE: Any fatal AE / TEAE: Any serious AE / TEAE: Back pain / TEAE: Constipation / TEAE: Decreased appetite / TEAE: Dehydration / TEAE: Diarrhea / TEAE: Dizziness / TEAE: Dysgeusia / TEAE: Fatigue / TEAE: Hypomagnesemia / TEAE: Myalgia / TEAE: NCI CTCAE grade 3 or 4 / TEAE: Nausea / TEAE: Neck pain / TEAE: Vomiting: N = 47; for TEAE: At least possibly related to study drug: N = 47, as assessed by investigator; for Deaths: N = 47, includes non-treatment-emergent deaths
Protocol: Safety was evaluated by AE monitoring, vital signs, physical examination, and laboratory testing throughout the study. Treatment-emergent AEs (TEAEs) were recorded from the time of first dose of study drug until 30 days from the last day of dosing or discontinuation, or until the first dose of study drug for patients enrolling in the NCT02033551 extension study. TEAEs were classified by Medical Dictionary for Regulatory Activities version 17.0 system organ class and preferred term. The severity of AEs was rated according to the National Cancer Institute Common Terminology Criteria for Adverse Events version 4.0. The safety population consisted of all patients’ data.

[6] = any of the three regimens (200 mg, 400 mg, placebo)
[7] = veliparib 200 mg single oral dose vs placebo
[8] = veliparib 400 mg single oral dose vs placebo
[9] = 200 mg single oral dose, N = 46, mean ± SD
[10] = 400 mg single oral dose, N = 46, mean ± SD
[11] = 200 mg single oral dose, N = 47, mean ± SD

SMILES: C[C@]1(c2nc3c(C(N)=O)cccc3[nH]2)CCCN1 [Veliparib]
- patients with QTcF value greater than 480 ms [1, 6]: No patient
- patients with change from baseline in QTcF interval greater than 30 ms [1, 6]: No patient
- maximum 95 % upper confidence bound for mean ∆∆QTcF [1, 7]: 6.1 ms
- maximum mean ∆∆QTcF [1, 7]: 3.6 ms
- maximum 95 % upper confidence bound for mean ∆∆QTcF [1, 8]: 8.9 ms
- maximum mean ∆∆QTcF [1, 8]: 6.4 ms
- dose-limiting toxicities ([2]; at 400 mg twice daily, in patients with BRCA1/2-mutated and wild-type tumors, respectively): grade 3 nausea/vomiting and grade 2 seizure
- maximum tolerated dose of single-agent veliparib ([2]; phase 1 study, patients with BRCA1/2-mutated or wild-type tumors): 400 mg twice daily
- AUC∞/dose [3, 9]: 59.9 ± 19.9^b (ng h/mL)/mg
- CL/F [3, 9]: 18.2 ± 5.09^b L/h
- Cmax/dose [3, 9]: 6.62 ± 1.89^b (ng/mL)/mg
- AUC∞/dose [3, 10]: 63.8 ± 20.9 (ng h/mL)/mg
- CL/F [3, 10]: 17.3 ± 5.27 L/h
- Cmax/dose [3, 10]: 6.51 ± 2.12 (ng/mL)/mg
- half-life ([3]; oral, similar for the 200 mg and 400 mg dose groups, read-out: terminal phase elimination half-life (t1/2) (converted)): ~5.5 h
- half-life ([3]; 200 mg single oral dose, N = 46, harmonic mean ± pseudo SD, read-out: t1/2 (converted)): 5.3 ± 1.1 h
- AUC(0-inf) [3, 9]: 12000 ± 3980 ng·h/mL
- Vd/F [3, 9]: 141 ± 42.8 L
- AUC(0-t) [3, 11]: 11100 ± 3120 ng·h/mL
- Cmax [3, 11]: 1320 ± 378 ng/mL
- Tmax [3, 11]: 2.4 ± 0.7 h
- half-life ([3]; 400 mg single oral dose, N = 46, harmonic mean ± pseudo SD, read-out: t1/2 (converted)): 5.4 ± 1.3 h
- AUC(0-inf) [3, 10]: 25500 ± 8370 ng·h/mL
- AUC(0-t) [3, 10]: 23800 ± 7100 ng·h/mL
- Cmax [3, 10]: 2610 ± 847 ng/mL
- Tmax [3, 10]: 2.5 ± 0.6 h
- Vd/F [3, 10]: 138 ± 48.4 L
- mean time to Cmax (Tmax) ([3]; similar for the 200 mg and 400 mg dose groups): approximately 2.5 h
- systemic exposure vs dose ([3]; single oral doses 200 mg and 400 mg): increased in a dose-proportional manner
- predicted mean ∆∆QTcF at geometric mean of Cmax ([4]; 200 mg dosing): 2.45 ms
- predicted upper 95th percentile ∆∆QTcF at geometric mean of Cmax ([4]; 200 mg dosing): 3.28 ms
- predicted mean ∆∆QTcF at geometric mean of Cmax ([4]; 400 mg dosing): 4.62 ms
- predicted upper 95th percentile ∆∆QTcF at geometric mean of Cmax ([4]; 400 mg dosing): 6.19 ms
- effect on corrected QT (QTc) interval (dogs): mild but concentration-dependent increase
- TEAE: AE leading to discontinuation ([5]; 200 mg): 0 n (%)
- TEAE: Abdominal pain ([5]; 200 mg): 2 (4.3) n (%)
- TEAE: Any AE ([5]; 200 mg): 17 (36.2) n (%)
- TEAE: Any fatal AE ([5]; 200 mg): 0 n (%)
- TEAE: Any serious AE ([5]; 200 mg): 0 n (%)
- TEAE: Back pain ([5]; 200 mg): 0 n (%)
- TEAE: Constipation ([5]; 200 mg): 0 n (%)
- TEAE: Decreased appetite ([5]; 200 mg): 0 n (%)
- TEAE: Dehydration ([5]; 200 mg): 2 (4.3) n (%)
- TEAE: Diarrhea ([5]; 200 mg): 1 (2.1) n (%)
- TEAE: Dizziness ([5]; 200 mg): 0 n (%)
- TEAE: Dysgeusia ([5]; 200 mg): 0 n (%)
- TEAE: Fatigue ([5]; 200 mg): 2 (4.3) n (%)
- TEAE: Hypomagnesemia ([5]; 200 mg): 0 n (%)
- TEAE: Myalgia ([5]; 200 mg): 4 (8.5) n (%)
- TEAE: NCI CTCAE grade 3 or 4 ([5]; 200 mg): 1 (2.1) n (%)
- TEAE: Nausea ([5]; 200 mg): 6 (12.8) n (%)
- TEAE: Neck pain ([5]; 200 mg): 0 n (%)
- TEAE: Vomiting ([5]; 200 mg): 2 (4.3) n (%)
- TEAE: At least possibly related to study drug ([5]; 200 mg): 7 (14.9) n (%)
- Deaths ([5]; 200 mg): 0 n (%)
- TEAE: AE leading to discontinuation ([5]; 400 mg): 1 (2.1) n (%)
- TEAE: Abdominal pain ([5]; 400 mg): 2 (4.3) n (%)
- TEAE: Any AE ([5]; 400 mg): 23 (48.9) n (%)
- TEAE: Any fatal AE ([5]; 400 mg): 0 n (%)
- TEAE: Any serious AE ([5]; 400 mg): 0 n (%)
- TEAE: Back pain ([5]; 400 mg): 2 (4.3) n (%)
- TEAE: Constipation ([5]; 400 mg): 1 (2.1) n (%)
- TEAE: Decreased appetite ([5]; 400 mg): 1 (2.1) n (%)
- TEAE: Dehydration ([5]; 400 mg): 0 n (%)
- TEAE: Diarrhea ([5]; 400 mg): 3 (6.4) n (%)
- TEAE: Dizziness ([5]; 400 mg): 3 (6.4) n (%)
- TEAE: Dysgeusia ([5]; 400 mg): 2 (4.3) n (%)
- TEAE: Fatigue ([5]; 400 mg): 3 (6.4) n (%)
- TEAE: Hypomagnesemia ([5]; 400 mg): 0 n (%)
- TEAE: Myalgia ([5]; 400 mg): 1 (2.1) n (%)
- TEAE: NCI CTCAE grade 3 or 4 ([5]; 400 mg): 1 (2.1) n (%)
- TEAE: Nausea ([5]; 400 mg): 4 (8.5) n (%)
- TEAE: Neck pain ([5]; 400 mg): 2 (4.3) n (%)
- TEAE: Vomiting ([5]; 400 mg): 4 (8.5) n (%)
- TEAE: At least possibly related to study drug ([5]; 400 mg): 11 (23.4) n (%)
- Deaths ([5]; 400 mg): 0 n (%)
- TEAE myalgia ([5]; veliparib 200 mg): 8.5%
- TEAE nausea ([5]; veliparib 200 mg): 12.8%
- patients experiencing treatment-emergent adverse events ([5]; veliparib 200 mg): 36.2%
- TEAE diarrhea ([5]; veliparib 400 mg): 6.4%
- TEAE dizziness ([5]; veliparib 400 mg): 6.4%
- TEAE fatigue ([5]; veliparib 400 mg): 6.4%
- TEAE nausea ([5]; veliparib 400 mg): 8.5%
- TEAE vomiting ([5]; veliparib 400 mg): 8.5%
- patients experiencing treatment-emergent adverse events ([5]; veliparib 400 mg): 48.9%
